Tests used:
Experiment in all cases: relative viability (nuclei count vs DMSO), 5 days (fraction); higher = more cells survive
[1] = compound: CCN(CCO)CCCC(C)Nc1ccnc2cc(Cl)ccc12 [Hydroxychloroquine] + Nc1ncn([C@H]2C[C@H](O)[C@@H](CO)O2)c(=O)n1 [Decitabine] (partner 2 µM)
Outline: (§1)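 The day after seeding in 1536-well plates, lung cancer cell lines were treated by pin tool with a single drug, or with a fixed anchor-drug dose together with five library-drug doses (not always all listed) in √10 steps. After 5 days, a combined fix-and-stain solution (final 0.05% Triton X-100, 1% formaldehyde, 1 ug/ml Hoechst) was added. Nuclei counted on 4× images gave relative viability as treated counts over vehicle counts, reported as the median of duplicate plates.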

[2] = compound: CCN(CCO)CCCC(C)Nc1ccnc2cc(Cl)ccc12 [Hydroxychloroquine] + CC(C)C[C@H](NC(=O)[C@H](Cc1ccccc1)NC(=O)c1cnccn1)B(O)O [Bortezomib] (partner 0.002 µM)
Outline: as §1

[3] = compound: CCN(CCO)CCCC(C)Nc1ccnc2cc(Cl)ccc12 [Hydroxychloroquine] + Cc1cc(Nc2cc(N3CCN(C)CC3)nc(Sc3ccc(NC(=O)C4CC4)cc3)n2)n[nH]1 [Tozasertib] (partner 0.1 µM)
Outline: as §1

[4] = compound: CCN(CCO)CCCC(C)Nc1ccnc2cc(Cl)ccc12 [Hydroxychloroquine] + NC(=O)Nc1cc(-c2cccc(F)c2)sc1C(=O)N[C@H]1CCCNC1 [AZD7762] (partner 0.2 µM)
Outline: as §1

Cell Line | relative viability ([1]; first compound 0.5 µM) | relative viability ([1]; first compound 1.581 µM) | relative viability ([1]; first compound 5 µM) | relative viability ([1]; first compound 15.81 µM) | relative viability ([1]; first compound 50 µM) | relative viability ([2]; first compound 0.5 µM) | relative viability ([2]; first compound 1.581 µM) | relative viability ([2]; first compound 5 µM) | relative viability ([2]; first compound 15.81 µM) | relative viability ([2]; first compound 50 µM) | relative viability ([3]; first compound 0.5 µM) | relative viability ([3]; first compound 1.581 µM) | relative viability ([3]; first compound 5 µM) | relative viability ([3]; first compound 15.81 µM) | relative viability ([3]; first compound 50 µM) | relative viability ([4]; first compound 0.5 µM) | relative viability ([4]; first compound 1.581 µM) | relative viability ([4]; first compound 5 µM) | relative viability ([4]; first compound 15.81 µM) | relative viability ([4]; first compound 50 µM)
NCI-H727 | 1.02 | 0.93 | 0.839 | 0.829 | 0.693 | 0.975 | 0.749 | 0.89 | 0.823 | 0.885 | 0.646 | 0.509 | 0.597 | 0.561 | 0.593 | 0.845 | 0.698 | 0.655 | 0.599 | 0.523
NCI-H1944 | 0.4 | 0.44 | 0.423 | 0.483 | 0.429 |  |  |  |  |  | 0.254 | 0.249 | 0.232 | 0.264 | 0.271 | 0.828 | 0.75 | 0.513 | 0.432 | 0.455
UMC-11 | 0.541 | 0.485 | 0.633 | 0.663 | 0.619 | 0.626 | 0.822 | 0.863 | 0.657 | 1.15 | 0.191 | 0.188 | 0.217 | 0.393 | 0.196 |  |  |  |  | 
COR-L 105 | 0.669 | 0.542 | 0.588 | 0.583 | 0.605 | 0.879 | 0.664 | 0.694 | 0.737 | 0.891 | 0.353 | 0.349 | 0.376 | 0.376 | 0.333 |  |  |  |  | 
EBC-1 |  |  |  |  |  | 0.471 | 0.51 | 0.505 | 0.519 | 0.459 |  |  |  |  |  |  |  |  |  | 
NCI-H520 | 0.532 | 0.549 | 0.513 | 0.491 | 0.526 | 0.639 | 0.606 | 0.662 | 0.658 | 0.511 | 0.45 | 0.39 | 0.442 | 0.465 | 0.41 |  |  |  |  | 
SW 1573 | 0.444 | 0.296 | 0.409 | 0.554 | 0.428 | 0.966 | 1.17 | 0.931 | 0.947 | 1.1 | 0.217 | 0.203 | 0.167 | 0.188 | 0.147 |  |  |  |  | 
NCI-H1648 | 0.51 | 0.447 | 0.512 | 0.518 | 0.484 |  |  |  |  |  |  | 0.498 | 0.684 | 0.486 | 0.412 | 0.657 | 0.758 | 0.575 | 0.531 | 0.562
SW 900 | 0.398 | 0.445 | 0.422 | 0.417 | 0.41 |  |  |  |  |  | 0.517 | 0.531 | 0.548 | 0.74 | 0.572 | 0.678 | 0.681 | 0.679 | 0.748 | 0.594
NCI-H1792 | 0.56 | 0.521 | 0.563 | 0.461 | 0.583 | 0.979 | 0.955 | 1.02 | 1.05 | 1.17 |  |  |  |  |  | 0.762 | 0.692 | 0.57 | 0.601 | 0.836
NCI-H1793 | 0.542 | 0.466 | 0.42 | 0.412 | 0.259 |  |  |  |  |  | 0.521 | 0.266 | 0.268 | 0.366 | 0.308 | 0.46 | 0.615 | 0.452 | 0.402 | 0.404
NCI-H1563 |  |  |  |  |  | 0.891 | 0.784 | 0.923 | 0.779 | 0.759 |  |  |  |  |  |  |  |  |  | 
NCI-H1395 | 0.665 | 0.68 | 0.741 | 0.763 | 0.704 |  |  |  |  |  | 0.74 | 0.717 | 0.73 | 0.824 | 0.723 | 0.393 | 0.465 | 0.419 | 0.375 | 0.426
NCI-H1299 |  |  |  |  |  | 1.01 | 1.01 | 1.04 | 1.03 | 0.942 |  |  |  |  |  |  |  |  |  | 
NCI-H2228 |  |  |  |  |  | 1 | 1.18 | 1 | 1.05 | 1.29 | 0.281 | 0.201 | 0.285 | 0.259 | 0.321 |  |  |  |  | 
NCI-H2170 | 0.438 | 0.449 | 0.396 | 0.438 | 0.457 |  |  |  |  |  | 0.721 | 0.751 | 0.67 | 0.813 | 0.728 | 0.925 | 0.918 | 0.867 | 0.882 | 1.09
NCI-H522 | 0.689 |  | 0.566 | 0.676 | 0.59 |  |  |  |  |  | 0.524 | 0.619 | 0.607 | 0.632 | 0.525 | 0.712 |  | 0.674 | 0.974 | 0.907
A549 | 0.264 | 0.208 | 0.267 | 0.196 | 0.391 |  |  |  |  |  |  |  |  |  |  |  |  |  |  | 
SK-LU-1 | 0.605 | 0.631 | 0.664 | 0.557 | 0.762 | 1.27 | 1.04 | 1.29 | 1.18 | 1.37 | 0.367 | 0.339 | 0.325 | 0.342 | 0.323 |  |  |  |  | 
NCI-H358 | 0.208 | 0.203 | 0.217 | 0.21 | 0.201 |  |  |  |  |  | 0.097 | 0.096 | 0.115 | 0.108 | 0.0849 | 0.498 | 0.566 | 0.534 | 0.436 | 0.442
CAL-12T |  |  |  |  |  | 1.11 |  | 0.922 | 0.795 | 0.926 | 0.342 | 0.276 | 0.336 | 0.296 | 0.378 | 0.571 | 0.804 | 0.596 | 0.599 | 0.659
COR-L23 | 0.451 | 0.452 | 0.397 | 0.416 | 0.534 | 0.89 | 1.17 | 1 | 1.28 | 1.21 | 0.191 | 0.218 | 0.267 | 0.209 | 0.225 |  |  |  |  | 
IA-LM |  |  |  |  |  | 0.695 | 0.83 | 0.909 | 0.758 | 1 |  |  |  |  |  |  |  |  |  | 
NCI-H661 | 0.584 | 0.587 | 0.564 | 0.528 | 0.567 | 0.795 | 0.719 | 0.652 | 0.761 | 0.825 | 0.358 | 0.32 | 0.355 | 0.397 | 0.349 |  |  |  |  | 
NCI-H1650 | 0.315 | 0.391 | 0.419 | 0.36 | 0.36 | 0.203 | 0.221 | 0.218 | 0.227 | 0.219 | 0.466 | 0.318 | 0.483 | 0.419 | 0.346 |  |  |  |  | 
Calu-6 |  |  |  |  |  | 1 | 1.08 | 0.954 | 1 | 0.922 |  |  |  |  |  |  |  |  |  | 

Source: the supplement of paper PMC10307832
